Test results reported in paper PMC7377239, “Cardiovascular Effects of Polychlorinated Biphenyls and Their Major Metabolites” (Environmental Health Perspectives, 2020).
Where a name gives a salt, the structure may show the parent alone. Read-outs that look alike come from different tables or passages of the source.

System: iCell cardiomyocytes (human iPSC-derived cardiomyocytes)
Test: High-content imaging of cytotoxicity and mitochondrial integrity in iPSC-CMs
Format: cell-based
Conditions: Homo sapiens, Cardiomyocyte; for viability at 0.01 µM / activity at 0.01 µM / viability at 0.1 µM / activity at 0.1 µM / viability at 1 µM / activity at 1 µM / viability at 10 µM / activity at 10 µM / viability at 100 µM / activity at 100 µM: 0.00 µM = 100.00; for viability at 0.1 µM / activity at 0.1 µM: 0.10 µM
Summary of the method: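 Readouts from high-content images were normalized to vehicle controls containing 0.5% vol/vol DMSO. They were fit to a four-parameter logistic model in R. Points of departure were set using a cutoff of one standard deviation across vehicle control means. Where no concentration–response was seen, the top tested concentration of 100μM was assigned as the no observable adverse effect level.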

[1] = 1.5 h, 90min, read-out: cm.cam.90min
[2] = 1.5 h, 90min, read-out: cm.mii.90min
[3] = 1.5 h, 90min, read-out: cm.mito.90min
[4] = 1.5 h, 90min, read-out: cm.tc.90min
[5] = 24 h, 24hrs, read-out: cm.cam.24hrs
[6] = 24 h, 24hrs, read-out: cm.mii.24hrs
[7] = 24 h, 24hrs, read-out: cm.mito.24hrs
[8] = 24 h, 24hrs, read-out: cm.tc.24hrs

Compound `O=S(=O)(O)Oc1cc(Cl)c(-c2cc(Cl)ccc2Cl)cc1Cl` [4-yl PCB 52 sulfate] has a viability at 0.01 µM [1] of 106%, an activity at 0.01 µM [2] of 103% and an activity at 0.01 µM [3] of 106%. The viability at 0.01 µM [4] was 106%, the viability at 0.1 µM [1] was 93.3% and the activity at 0.1 µM [2] was 129%. The activity at 0.1 µM [3] was 92.9%, the viability at 0.1 µM [4] was 92.8% and the viability at 1 µM [1] was 98.7%. It also gave an activity at 1 µM [2] of 130%, an activity at 1 µM [3] of 98.5% and a viability at 1 µM [4] of 98.4%. It also gave a viability at 10 µM [1] of 97.1%, an activity at 10 µM [2] of 109% and an activity at 10 µM [3] of 96.8%. For the same compound, the viability at 10 µM [4] was 97.1%, the viability at 100 µM [1] was 0.07% and the activity at 100 µM [2] was 31.5%. For the same compound, the activity at 100 µM [3] was 0.16%, the viability at 100 µM [4] was 0.16% and the minimal effective concentration (1.5 h, 90min, read-out: cm.cam.90min POD) was 10.8 µM. The minimal effective concentration (1.5 h, 90min, read-out: cm.mii.90min POD) was 41.2 µM, the minimal effective concentration (1.5 h, 90min, read-out: cm.mito.90min POD) was 10.6 µM and the minimal effective concentration (1.5 h, 90min, read-out: cm.tc.90min POD) was 10.8 µM. The viability at 0.01 µM [5] was 95.3%, the activity at 0.01 µM [6] was 98.6% and the activity at 0.01 µM [7] was 93.3%. The viability at 0.01 µM [8] was 96.5%, the viability at 0.1 µM [5] was 103% and the activity at 0.1 µM [6] was 122%. For the same compound, the activity at 0.1 µM [7] was 104%, the viability at 0.1 µM [8] was 104% and the viability at 1 µM [5] was 104%. The activity at 1 µM [6] was 111%, the activity at 1 µM [7] was 104% and the viability at 1 µM [8] was 104%. The viability at 10 µM [5] was 91.5%, the activity at 10 µM [6] was 107% and the activity at 10 µM [7] was 89.6%. For the same compound, the viability at 10 µM [8] was 91.7%, the viability at 100 µM [5] was 1.67% and the activity at 100 µM [6] was 12.2%. For the same compound, the activity at 100 µM [7] was 0.34%, the viability at 100 µM [8] was 3.82% and the minimal effective concentration (24 h, read-out: cm.cam.24hrs POD) was 8.2 µM. The minimal effective concentration (24 h, read-out: cm.mii.24hrs POD) was 44.6 µM, the minimal effective concentration (24 h, read-out: cm.mito.24hrs POD) was 8.28 µM and the minimal effective concentration (24 h, read-out: cm.tc.24hrs POD) was 8.44 µM.
